Source: ChEMBL document CHEMBL4725315, “Structure-guided optimization of a novel class of ASK1 inhibitors with increased sp character and an exquisite selectivity profile” (Bioorg Med Chem Lett, 2020)
≈ marks a conversion by molar mass, not a printed value.

Assays:
[1] = target: T1, Mitogen-activated protein kinase kinase kinase 5 (Homo sapiens, UniProt Q99683); assay: Inhibition of ASK1 (unknown origin)
T1 sequence (Q99683 whole entry): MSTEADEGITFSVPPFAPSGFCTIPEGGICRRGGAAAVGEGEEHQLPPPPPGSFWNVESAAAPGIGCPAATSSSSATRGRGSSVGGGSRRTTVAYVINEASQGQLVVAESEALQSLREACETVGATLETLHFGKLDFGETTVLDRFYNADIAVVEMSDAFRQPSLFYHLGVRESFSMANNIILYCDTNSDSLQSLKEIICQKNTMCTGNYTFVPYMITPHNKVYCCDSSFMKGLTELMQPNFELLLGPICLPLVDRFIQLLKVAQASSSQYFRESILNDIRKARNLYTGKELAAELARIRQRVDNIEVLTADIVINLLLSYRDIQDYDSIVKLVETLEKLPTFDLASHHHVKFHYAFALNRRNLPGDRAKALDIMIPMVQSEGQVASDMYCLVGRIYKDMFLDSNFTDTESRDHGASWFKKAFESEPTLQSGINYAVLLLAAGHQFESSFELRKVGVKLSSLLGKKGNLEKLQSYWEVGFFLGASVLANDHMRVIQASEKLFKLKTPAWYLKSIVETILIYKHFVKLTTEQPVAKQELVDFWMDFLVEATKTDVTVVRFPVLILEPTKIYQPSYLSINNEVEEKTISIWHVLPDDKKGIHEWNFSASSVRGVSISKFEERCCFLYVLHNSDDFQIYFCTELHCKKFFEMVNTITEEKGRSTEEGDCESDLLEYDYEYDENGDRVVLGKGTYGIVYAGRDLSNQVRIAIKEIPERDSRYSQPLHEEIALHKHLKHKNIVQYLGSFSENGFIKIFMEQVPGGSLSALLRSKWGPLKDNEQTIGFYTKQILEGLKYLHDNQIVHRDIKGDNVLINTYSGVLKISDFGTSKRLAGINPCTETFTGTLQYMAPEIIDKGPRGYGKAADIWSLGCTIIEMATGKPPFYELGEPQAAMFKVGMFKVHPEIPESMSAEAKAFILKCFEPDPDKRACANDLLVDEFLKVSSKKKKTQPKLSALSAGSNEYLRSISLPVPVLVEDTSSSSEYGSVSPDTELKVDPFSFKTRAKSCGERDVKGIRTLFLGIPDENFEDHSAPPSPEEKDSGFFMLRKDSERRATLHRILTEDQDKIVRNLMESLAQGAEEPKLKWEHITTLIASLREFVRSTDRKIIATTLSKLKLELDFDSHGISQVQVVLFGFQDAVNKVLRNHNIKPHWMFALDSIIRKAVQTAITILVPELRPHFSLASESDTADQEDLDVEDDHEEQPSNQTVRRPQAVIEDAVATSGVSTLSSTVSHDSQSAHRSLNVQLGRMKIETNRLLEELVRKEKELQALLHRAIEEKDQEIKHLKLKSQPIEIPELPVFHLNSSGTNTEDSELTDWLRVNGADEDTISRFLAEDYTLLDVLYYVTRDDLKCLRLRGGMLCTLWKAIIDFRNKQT

[2] = Metabolic stability in human hepatocytes assessed as hepatic extraction ratio; assay type: ADME, cell-based, Hepatocyte; settings: read-out: ERH
MDR1 (human) = assay: Permeability across apical to basolateral side in pig LLC-PK1 cells expressing human MDR1; assay type: ADME, cell-based, Sus scrofa; settings: read-out: permeability
[3] = Aqueous solubility of the compound in JP1 fluid at pH 1.2; assay type: physicochemical
[4] = Aqueous solubility of the compound in JP2 fluid at […]; assay type: physicochemical
[5] = Drug absorption in male Sprague-Dawley rat at 1 mg/kg, […] by LC-MS/MS analysis; assay type: ADME, organism-based; settings: in vivo, read-out: Drug absorption
[6] = Oral bioavailability in male Sprague-Dawley rat at 5 mg/kg; assay type: ADME, organism-based; settings: in vivo
[7] = target: Leucine-rich repeat serine/threonine-protein kinase 2 (Homo sapiens, UniProt Q5S007); assay: Inhibition of recombinant human GST-tagged LRRK2 expressed in baculovirus expression system
[8] = target: Ribosomal protein S6 kinase alpha-2 (Homo sapiens, UniProt Q15349); assay: Inhibition of recombinant human full-length GST-tagged RSK3 expressed in insect cells
[9] = target: Serine/threonine-protein kinase D1 (Homo sapiens, UniProt Q15139); assay: Inhibition of recombinant human full-length GST-tagged PKCmu expressed in baculovirus expression system
[10] = target: Ribosomal protein S6 kinase alpha-3 (Homo sapiens, UniProt P51812); assay: Inhibition of recombinant human full-length His-tagged RSK2 expressed in baculovirus expression system
[11] = target: Ribosomal protein S6 kinase alpha-6 (Homo sapiens, UniProt Q9UK32); assay: Inhibition of recombinant human full-length GST-tagged RSK4 expressed in baculovirus expression system
[12] = target: Serine/threonine-protein kinase D2 (Homo sapiens, UniProt Q9BZL6); assay: Inhibition of recombinant human full-length GST-tagged PRKD2 expressed in baculovirus expression system
[13] = target: Casein kinase I isoform gamma-1 (Homo sapiens, UniProt Q9HCP0); assay: Inhibition of CK1gamma1 (unknown origin)
[14] = target: Casein kinase I isoform gamma-3 (Homo sapiens, UniProt Q9Y6M4); assay: Inhibition of CK1gamma3 (unknown origin)
[15] = target: T1, Mitogen-activated protein kinase kinase kinase 5; assay: Inhibition of ASK1 (unknown origin) by cell based assay
[16] = target: T1, Mitogen-activated protein kinase kinase kinase 5; assay: Binding affinity to ASK1 (unknown origin)
Homo sapiens [17] = organism: Homo sapiens; assay: Selectivity ratio of IC50 for inhibition of recombinant human GST-tagged LRRK2 expressed in baculovirus expression system to IC50 for inhibition of ASK1 (unknown origin)
Homo sapiens [18] = organism: Homo sapiens; assay: Selectivity ratio of IC50 for inhibition of recombinant human full-length GST-tagged RSK3 expressed in insect cells to IC50 for inhibition of ASK1 (unknown origin)
Homo sapiens [19] = organism: Homo sapiens; assay: Selectivity ratio of IC50 for inhibition of recombinant human full-length GST-tagged PKCmu expressed in baculovirus expression system to IC50 for inhibition of ASK1 (unknown origin)
Homo sapiens [20] = organism: Homo sapiens; assay: Selectivity ratio of IC50 for inhibition of recombinant human full-length His-tagged RSK2 expressed in baculovirus expression system to IC50 for inhibition of ASK1 (unknown origin)
Homo sapiens [21] = organism: Homo sapiens; assay: Selectivity ratio of IC50 for inhibition of recombinant human full-length GST-tagged RSK4 expressed in baculovirus expression system to IC50 for inhibition of ASK1 (unknown origin)
Homo sapiens [22] = organism: Homo sapiens; assay: Selectivity ratio of IC50 for inhibition of recombinant human full-length GST-tagged PRKD2 expressed in baculovirus expression system to IC50 for inhibition of ASK1 (unknown origin)
Homo sapiens [23] = organism: Homo sapiens; assay: Selectivity ratio of IC50 for inhibition of CK1gamma1 (unknown origin) to IC50 for inhibition of ASK1 (unknown origin)
Homo sapiens [24] = organism: Homo sapiens; assay: Selectivity ratio of IC50 for inhibition of CK1gamma3 (unknown origin) to IC50 for inhibition of ASK1 (unknown origin)
MAP kinase p38 = MAP kinase p38 (Homo sapiens, UniProt O15264+Q15759+Q16539+P53778); assay: Inhibition of p38 (unknown origin); assay type: protein assay
[25] = target: Epidermal growth factor receptor (Homo sapiens, UniProt P00533); assay: Inhibition of EGFR (unknown origin)
[26] = target: T2, Receptor tyrosine-protein kinase erbB-4 (Homo sapiens, UniProt Q15303); assay: Inhibition of HER4 (unknown origin)
T2 sequence (Q15303 whole entry): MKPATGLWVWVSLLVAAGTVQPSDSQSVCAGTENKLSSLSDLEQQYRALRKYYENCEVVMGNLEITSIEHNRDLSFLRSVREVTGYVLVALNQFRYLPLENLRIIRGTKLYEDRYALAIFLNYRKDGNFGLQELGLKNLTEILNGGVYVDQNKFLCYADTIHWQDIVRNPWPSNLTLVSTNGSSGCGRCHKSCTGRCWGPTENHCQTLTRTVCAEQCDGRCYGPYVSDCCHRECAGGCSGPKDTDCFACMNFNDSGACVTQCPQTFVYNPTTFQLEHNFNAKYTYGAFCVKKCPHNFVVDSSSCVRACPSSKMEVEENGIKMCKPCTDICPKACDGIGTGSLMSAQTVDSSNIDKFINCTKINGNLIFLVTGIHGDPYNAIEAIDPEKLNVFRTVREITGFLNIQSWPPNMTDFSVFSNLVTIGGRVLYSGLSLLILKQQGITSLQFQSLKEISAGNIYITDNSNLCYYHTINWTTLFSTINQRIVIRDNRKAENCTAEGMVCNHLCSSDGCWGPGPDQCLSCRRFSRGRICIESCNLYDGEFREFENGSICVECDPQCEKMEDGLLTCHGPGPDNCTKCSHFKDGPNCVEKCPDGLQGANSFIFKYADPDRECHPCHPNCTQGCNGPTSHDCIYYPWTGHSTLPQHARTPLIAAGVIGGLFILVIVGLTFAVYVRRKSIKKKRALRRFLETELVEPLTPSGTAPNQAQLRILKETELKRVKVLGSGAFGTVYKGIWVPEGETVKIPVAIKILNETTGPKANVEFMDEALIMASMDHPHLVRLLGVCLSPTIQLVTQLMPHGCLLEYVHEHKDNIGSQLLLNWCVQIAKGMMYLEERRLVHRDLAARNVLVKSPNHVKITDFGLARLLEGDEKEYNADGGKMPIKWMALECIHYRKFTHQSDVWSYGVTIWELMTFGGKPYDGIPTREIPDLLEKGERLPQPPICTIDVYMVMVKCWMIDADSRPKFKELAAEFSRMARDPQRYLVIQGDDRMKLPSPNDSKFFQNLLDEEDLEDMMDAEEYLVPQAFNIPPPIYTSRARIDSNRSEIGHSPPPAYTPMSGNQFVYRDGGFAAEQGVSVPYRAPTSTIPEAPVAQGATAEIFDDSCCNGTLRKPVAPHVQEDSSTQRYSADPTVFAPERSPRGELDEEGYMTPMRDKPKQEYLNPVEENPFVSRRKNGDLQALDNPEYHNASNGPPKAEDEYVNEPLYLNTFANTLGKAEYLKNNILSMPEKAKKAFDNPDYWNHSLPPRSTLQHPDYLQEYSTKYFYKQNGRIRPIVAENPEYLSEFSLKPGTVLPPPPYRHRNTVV

[27] = target: Tyrosine-protein kinase Mer (Homo sapiens, UniProt Q12866); assay: Inhibition of MER (unknown origin)
Sequence of Tyrosine-protein kinase Mer (Q12866 whole entry): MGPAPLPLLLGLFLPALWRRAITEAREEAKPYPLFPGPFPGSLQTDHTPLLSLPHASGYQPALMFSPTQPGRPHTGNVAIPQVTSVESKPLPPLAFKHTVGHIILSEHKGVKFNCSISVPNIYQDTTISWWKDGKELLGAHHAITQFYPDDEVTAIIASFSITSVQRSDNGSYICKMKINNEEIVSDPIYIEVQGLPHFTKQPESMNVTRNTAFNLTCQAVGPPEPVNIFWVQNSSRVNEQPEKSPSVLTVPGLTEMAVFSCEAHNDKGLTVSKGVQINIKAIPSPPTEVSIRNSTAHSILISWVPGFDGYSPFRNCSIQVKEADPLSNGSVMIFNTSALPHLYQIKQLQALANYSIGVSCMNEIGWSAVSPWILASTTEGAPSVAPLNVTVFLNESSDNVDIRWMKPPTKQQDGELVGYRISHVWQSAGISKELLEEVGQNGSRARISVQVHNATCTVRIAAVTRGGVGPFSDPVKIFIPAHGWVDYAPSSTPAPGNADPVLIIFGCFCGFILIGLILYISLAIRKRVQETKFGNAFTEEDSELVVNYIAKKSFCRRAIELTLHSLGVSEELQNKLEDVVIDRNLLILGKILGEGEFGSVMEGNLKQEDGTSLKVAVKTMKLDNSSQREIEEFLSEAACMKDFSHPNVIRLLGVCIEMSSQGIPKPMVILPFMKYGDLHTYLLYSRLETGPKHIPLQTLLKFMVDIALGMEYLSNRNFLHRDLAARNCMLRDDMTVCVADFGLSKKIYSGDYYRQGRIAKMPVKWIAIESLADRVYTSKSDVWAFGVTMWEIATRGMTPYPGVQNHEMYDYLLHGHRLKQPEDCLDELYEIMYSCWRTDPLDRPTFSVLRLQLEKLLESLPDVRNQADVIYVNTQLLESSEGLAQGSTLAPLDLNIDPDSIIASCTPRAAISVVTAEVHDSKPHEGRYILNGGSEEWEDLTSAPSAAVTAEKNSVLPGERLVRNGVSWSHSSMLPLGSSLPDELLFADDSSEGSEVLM

[28] = target: Proto-oncogene tyrosine-protein kinase receptor Ret (Homo sapiens, UniProt P07949); assay: Inhibition of RET (unknown origin)
[29] = target: Rho-associated protein kinase 1 (Homo sapiens, UniProt Q13464); assay: Inhibition of ROCK1 (unknown origin)
Sequence of Rho-associated protein kinase 1 (Q13464 whole entry): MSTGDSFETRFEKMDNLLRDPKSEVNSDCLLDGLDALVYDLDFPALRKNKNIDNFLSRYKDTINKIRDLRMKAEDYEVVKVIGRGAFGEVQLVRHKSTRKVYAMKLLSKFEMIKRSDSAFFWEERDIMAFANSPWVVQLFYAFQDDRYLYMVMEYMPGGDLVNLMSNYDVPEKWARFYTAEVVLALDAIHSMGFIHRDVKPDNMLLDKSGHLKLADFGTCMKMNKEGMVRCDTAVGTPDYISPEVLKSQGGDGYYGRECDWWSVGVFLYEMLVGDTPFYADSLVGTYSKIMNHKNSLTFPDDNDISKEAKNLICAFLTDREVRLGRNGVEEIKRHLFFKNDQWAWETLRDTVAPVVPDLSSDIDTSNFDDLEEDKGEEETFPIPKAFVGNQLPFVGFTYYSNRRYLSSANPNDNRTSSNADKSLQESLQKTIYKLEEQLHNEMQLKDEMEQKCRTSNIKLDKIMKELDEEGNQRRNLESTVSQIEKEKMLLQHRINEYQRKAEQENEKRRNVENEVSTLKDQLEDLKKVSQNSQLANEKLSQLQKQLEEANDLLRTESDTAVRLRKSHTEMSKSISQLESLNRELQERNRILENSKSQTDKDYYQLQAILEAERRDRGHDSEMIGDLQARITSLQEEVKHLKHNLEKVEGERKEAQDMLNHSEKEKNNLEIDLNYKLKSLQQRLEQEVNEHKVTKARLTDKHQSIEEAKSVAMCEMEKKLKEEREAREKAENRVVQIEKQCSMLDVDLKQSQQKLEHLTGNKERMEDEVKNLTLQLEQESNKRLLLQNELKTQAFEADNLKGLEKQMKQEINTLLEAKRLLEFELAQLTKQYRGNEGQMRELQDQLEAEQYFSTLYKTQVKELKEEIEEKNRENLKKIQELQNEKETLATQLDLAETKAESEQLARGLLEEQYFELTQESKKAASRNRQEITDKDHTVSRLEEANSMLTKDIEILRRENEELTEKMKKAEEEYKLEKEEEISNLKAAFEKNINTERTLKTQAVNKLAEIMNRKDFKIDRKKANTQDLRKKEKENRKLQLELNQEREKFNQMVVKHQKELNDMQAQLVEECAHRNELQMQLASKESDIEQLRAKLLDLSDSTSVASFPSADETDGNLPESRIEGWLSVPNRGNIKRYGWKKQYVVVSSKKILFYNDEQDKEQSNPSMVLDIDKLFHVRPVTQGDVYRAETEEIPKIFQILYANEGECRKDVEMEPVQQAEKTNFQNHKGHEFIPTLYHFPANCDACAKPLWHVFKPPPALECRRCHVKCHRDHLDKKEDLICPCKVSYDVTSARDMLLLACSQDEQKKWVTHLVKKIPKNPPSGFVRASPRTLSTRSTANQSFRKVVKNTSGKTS

[30] = target: Tyrosine-protein kinase ITK/TSK (Homo sapiens, UniProt Q08881); assay: Inhibition of ITK (unknown origin)
Sequence of Tyrosine-protein kinase ITK/TSK (Q08881 whole entry): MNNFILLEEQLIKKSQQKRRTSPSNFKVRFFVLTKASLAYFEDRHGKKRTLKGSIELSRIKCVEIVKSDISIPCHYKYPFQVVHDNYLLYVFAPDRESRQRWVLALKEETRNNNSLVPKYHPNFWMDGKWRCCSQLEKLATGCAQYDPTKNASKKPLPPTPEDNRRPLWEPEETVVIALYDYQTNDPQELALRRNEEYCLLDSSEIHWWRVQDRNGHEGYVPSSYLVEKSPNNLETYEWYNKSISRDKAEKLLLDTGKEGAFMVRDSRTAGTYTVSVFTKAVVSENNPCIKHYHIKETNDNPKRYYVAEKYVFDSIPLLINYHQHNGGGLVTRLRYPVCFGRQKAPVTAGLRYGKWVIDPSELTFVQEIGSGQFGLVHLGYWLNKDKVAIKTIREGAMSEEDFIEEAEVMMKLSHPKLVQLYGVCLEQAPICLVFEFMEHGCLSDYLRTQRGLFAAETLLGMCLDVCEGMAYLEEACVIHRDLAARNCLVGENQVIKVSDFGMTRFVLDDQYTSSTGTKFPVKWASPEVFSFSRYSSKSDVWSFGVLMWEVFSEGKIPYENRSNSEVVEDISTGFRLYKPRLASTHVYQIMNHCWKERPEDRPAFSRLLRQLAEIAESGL

[31] = target: T2, Receptor tyrosine-protein kinase erbB-4; assay: Inhibition of ERBB4 (unknown origin)
Ephrin type-A receptor 3 = Ephrin type-A receptor 3 (Homo sapiens, UniProt P29320); assay: Inhibition of EPHA3 (unknown origin)
[32] = Inhibition of GSK3 (unknown origin); parameters: species or system Homo sapiens
[33] = target: Cyclin-dependent kinase 2 (Homo sapiens, UniProt P24941); assay: Inhibition of CDK2 (unknown origin)
[34] = target: 5'-AMP-activated protein kinase catalytic subunit alpha-1 (Homo sapiens, UniProt Q13131); assay: Inhibition of PRKKA1 (unknown origin)
Sequence of 5'-AMP-activated protein kinase catalytic subunit alpha-1 (Q13131 whole entry): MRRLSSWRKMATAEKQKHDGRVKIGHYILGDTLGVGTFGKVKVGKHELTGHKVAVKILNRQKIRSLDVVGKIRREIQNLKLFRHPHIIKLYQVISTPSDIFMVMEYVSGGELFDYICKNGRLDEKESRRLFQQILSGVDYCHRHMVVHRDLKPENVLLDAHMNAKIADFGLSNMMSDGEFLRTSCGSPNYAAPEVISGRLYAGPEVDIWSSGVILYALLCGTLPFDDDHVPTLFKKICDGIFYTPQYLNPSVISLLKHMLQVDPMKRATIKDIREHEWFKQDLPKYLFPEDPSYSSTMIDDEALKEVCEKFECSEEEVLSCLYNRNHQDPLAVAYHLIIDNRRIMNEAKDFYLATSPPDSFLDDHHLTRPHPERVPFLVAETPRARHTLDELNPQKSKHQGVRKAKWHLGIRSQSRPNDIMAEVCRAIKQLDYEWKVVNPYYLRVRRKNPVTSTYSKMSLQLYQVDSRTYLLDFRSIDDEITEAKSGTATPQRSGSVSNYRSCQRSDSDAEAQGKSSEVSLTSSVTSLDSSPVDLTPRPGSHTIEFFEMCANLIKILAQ

CC(C)n1cnnc1-c1cccc(NC(=O)[C@H]2CN(c3ccc(C4CC4)nc3)CCO2)n1
IC50 [1]: 17 nM
hepatic extraction ratio [2]: 0.32
Papp A→B (MDR1 (human)): 10.7 ×10⁻⁶ cm/s
solubility [3]: > 200 µM
solubility [4]: 101 µM (≈ 43.8 µg/mL)
Fa [5]: 52%
bioavailability [6]: 18%
IC50 [7]: ≤ 500 nM
IC50 [8]: ≤ 500 nM
IC50 [9]: ≤ 500 nM
IC50 [10]: ≤ 500 nM
IC50 [11]: ≤ 500 nM
IC50 [12]: ≤ 500 nM
IC50 [13]: ≤ 500 nM
IC50 [14]: ≤ 500 nM
EC50 [15]: 24 nM
Kd [16]: < 1 nM
Ratio IC50 (Homo sapiens [17]): < 20
Ratio IC50 (Homo sapiens [18]): < 20
Ratio IC50 (Homo sapiens [19]): < 20
Ratio IC50 (Homo sapiens [20]): < 20
Ratio IC50 (Homo sapiens [21]): < 20
Ratio IC50 (Homo sapiens [22]): < 20
Ratio IC50 (Homo sapiens [23]): < 20
Ratio IC50 (Homo sapiens [24]): < 20

CC(C)n1cnnc1-c1cccc(NC(=O)C2CN(c3ccccc3)CCO2)n1 (centres undefined)
IC50 [1]: 130 nM

CC(C)n1cnnc1-c1cccc(NC(=O)C2CCCCO2)n1 (centres undefined)
IC50 [1]: 270 nM
pIC50 (MAP kinase p38): < 4.7
IC50 [25]: > 20 µM
IC50 [26]: > 20 µM
IC50 [27]: > 20000 nM
IC50 [28]: > 20000 nM
IC50 [29]: > 20000 nM
IC50 [30]: > 20000 nM
IC50 [31]: > 20 µM
IC50 (Ephrin type-A receptor 3): > 20 µM
pIC50 [32]: 6.2
IC50 [33]: 3160 nM
IC50 [34]: > 20000 nM

CC(C)n1cnnc1-c1cccc(NC(=O)C2CN(C)CCO2)n1 (centres undefined)
IC50 [1]: 2 nM

CC(C)n1cnnc1-c1cccc(N2Cc3ccccc3C2=O)n1
IC50 [1]: 14 nM
pIC50 (MAP kinase p38): < 4.7
IC50 [25]: > 20 µM
IC50 [26]: > 20 µM
IC50 [27]: 631 nM
IC50 [28]: 63.1 nM
IC50 [29]: 1000 nM
IC50 [30]: 1260 nM
IC50 [31]: > 20 µM
IC50 (Ephrin type-A receptor 3): > 20 µM
pIC50 [32]: 7.4
IC50 [33]: 63.1 nM
IC50 [34]: 200 nM

CC(C)n1cnnc1-c1cccc(NC(=O)C2CN(c3cccnc3)CCO2)n1 (centres undefined)
IC50 [1]: 31 nM
